From article PMC9927415, “Tyrosine Kinase Inhibitors Display Potent Activity against Cryptosporidium parvum” (Microbiology Spectrum, 2022) come the findings set out here.

Structures are written as SMILES.

Common to all, as to assay: KINOMEscan competitive binding
One experiment addresses T1, PAK3 (Homo sapiens, UniProt O75914).
T1 construct: purchased DiscoverX (KINOMEscan)
To be noted: n=1, read-out: Percent inhibition, PAK3.

In a further experiment the target is T2, RET (Homo sapiens, UniProt P07949).
T2 construct: purchased DiscoverX (KINOMEscan)
The conditions noted are these: n=1, read-out: Percent inhibition, RET.

The target of a further experiment is T3, STK36 (Homo sapiens, UniProt Q9NRP7).
T3 construct: purchased DiscoverX (KINOMEscan)
T3 sequence (Q9NRP7 1-1315): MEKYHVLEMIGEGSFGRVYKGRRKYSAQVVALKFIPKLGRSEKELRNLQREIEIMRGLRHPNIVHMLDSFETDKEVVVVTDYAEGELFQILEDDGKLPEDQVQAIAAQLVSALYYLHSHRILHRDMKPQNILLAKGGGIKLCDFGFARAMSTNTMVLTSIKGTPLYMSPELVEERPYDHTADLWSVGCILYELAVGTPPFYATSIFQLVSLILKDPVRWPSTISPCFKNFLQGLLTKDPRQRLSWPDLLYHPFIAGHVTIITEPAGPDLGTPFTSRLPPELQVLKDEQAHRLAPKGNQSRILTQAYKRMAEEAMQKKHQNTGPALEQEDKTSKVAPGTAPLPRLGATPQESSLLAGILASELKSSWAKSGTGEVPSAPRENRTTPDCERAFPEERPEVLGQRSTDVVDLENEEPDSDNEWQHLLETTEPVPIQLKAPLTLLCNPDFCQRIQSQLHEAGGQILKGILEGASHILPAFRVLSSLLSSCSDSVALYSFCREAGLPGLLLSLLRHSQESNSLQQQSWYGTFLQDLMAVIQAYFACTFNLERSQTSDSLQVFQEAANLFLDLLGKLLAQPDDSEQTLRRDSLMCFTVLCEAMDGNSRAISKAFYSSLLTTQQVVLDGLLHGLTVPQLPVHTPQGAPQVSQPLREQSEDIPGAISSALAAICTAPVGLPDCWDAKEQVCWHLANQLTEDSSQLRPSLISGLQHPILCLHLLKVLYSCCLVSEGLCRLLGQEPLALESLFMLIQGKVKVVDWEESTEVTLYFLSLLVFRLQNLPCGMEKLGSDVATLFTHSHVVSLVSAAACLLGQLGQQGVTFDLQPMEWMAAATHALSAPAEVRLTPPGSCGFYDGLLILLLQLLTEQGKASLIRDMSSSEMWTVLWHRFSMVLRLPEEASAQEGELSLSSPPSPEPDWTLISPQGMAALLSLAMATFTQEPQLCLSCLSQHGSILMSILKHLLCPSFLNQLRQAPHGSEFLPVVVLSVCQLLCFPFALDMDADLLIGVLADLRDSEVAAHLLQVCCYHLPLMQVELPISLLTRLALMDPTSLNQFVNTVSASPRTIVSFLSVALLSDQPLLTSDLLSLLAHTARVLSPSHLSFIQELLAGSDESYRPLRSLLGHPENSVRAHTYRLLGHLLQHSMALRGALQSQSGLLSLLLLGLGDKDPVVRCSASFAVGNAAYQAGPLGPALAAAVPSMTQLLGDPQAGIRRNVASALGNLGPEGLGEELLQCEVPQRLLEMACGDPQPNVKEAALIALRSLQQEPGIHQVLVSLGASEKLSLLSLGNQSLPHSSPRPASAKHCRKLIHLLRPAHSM
To be noted: n=1, read-out: Percent inhibition, STK36.

In a further experiment the target is T4, TNK1 (Homo sapiens, UniProt Q13470).
T4 construct: purchased DiscoverX (KINOMEscan)
T4 sequence (Q13470 1-666): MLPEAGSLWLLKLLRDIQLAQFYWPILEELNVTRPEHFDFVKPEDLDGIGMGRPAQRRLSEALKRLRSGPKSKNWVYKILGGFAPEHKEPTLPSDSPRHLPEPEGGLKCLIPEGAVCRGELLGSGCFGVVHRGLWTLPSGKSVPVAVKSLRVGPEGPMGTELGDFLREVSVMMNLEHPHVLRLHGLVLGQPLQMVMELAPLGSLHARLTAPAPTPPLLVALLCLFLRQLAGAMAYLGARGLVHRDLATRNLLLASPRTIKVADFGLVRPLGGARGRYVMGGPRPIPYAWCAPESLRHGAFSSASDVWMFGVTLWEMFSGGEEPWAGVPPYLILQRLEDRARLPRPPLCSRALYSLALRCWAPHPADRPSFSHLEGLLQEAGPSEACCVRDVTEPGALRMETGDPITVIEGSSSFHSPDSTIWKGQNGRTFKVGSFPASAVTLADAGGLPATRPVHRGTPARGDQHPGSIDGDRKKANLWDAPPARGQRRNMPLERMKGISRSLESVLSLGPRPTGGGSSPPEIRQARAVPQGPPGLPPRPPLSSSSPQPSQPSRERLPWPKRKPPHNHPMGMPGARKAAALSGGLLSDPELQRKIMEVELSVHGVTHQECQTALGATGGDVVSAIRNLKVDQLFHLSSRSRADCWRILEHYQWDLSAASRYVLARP
To be noted: n=1, read-out: Percent inhibition, TNK1.

The next experiment deals with T5, TYRO3 (Homo sapiens, UniProt Q06418).
T5 construct: purchased DiscoverX (KINOMEscan)
T5 sequence (Q06418 41-890): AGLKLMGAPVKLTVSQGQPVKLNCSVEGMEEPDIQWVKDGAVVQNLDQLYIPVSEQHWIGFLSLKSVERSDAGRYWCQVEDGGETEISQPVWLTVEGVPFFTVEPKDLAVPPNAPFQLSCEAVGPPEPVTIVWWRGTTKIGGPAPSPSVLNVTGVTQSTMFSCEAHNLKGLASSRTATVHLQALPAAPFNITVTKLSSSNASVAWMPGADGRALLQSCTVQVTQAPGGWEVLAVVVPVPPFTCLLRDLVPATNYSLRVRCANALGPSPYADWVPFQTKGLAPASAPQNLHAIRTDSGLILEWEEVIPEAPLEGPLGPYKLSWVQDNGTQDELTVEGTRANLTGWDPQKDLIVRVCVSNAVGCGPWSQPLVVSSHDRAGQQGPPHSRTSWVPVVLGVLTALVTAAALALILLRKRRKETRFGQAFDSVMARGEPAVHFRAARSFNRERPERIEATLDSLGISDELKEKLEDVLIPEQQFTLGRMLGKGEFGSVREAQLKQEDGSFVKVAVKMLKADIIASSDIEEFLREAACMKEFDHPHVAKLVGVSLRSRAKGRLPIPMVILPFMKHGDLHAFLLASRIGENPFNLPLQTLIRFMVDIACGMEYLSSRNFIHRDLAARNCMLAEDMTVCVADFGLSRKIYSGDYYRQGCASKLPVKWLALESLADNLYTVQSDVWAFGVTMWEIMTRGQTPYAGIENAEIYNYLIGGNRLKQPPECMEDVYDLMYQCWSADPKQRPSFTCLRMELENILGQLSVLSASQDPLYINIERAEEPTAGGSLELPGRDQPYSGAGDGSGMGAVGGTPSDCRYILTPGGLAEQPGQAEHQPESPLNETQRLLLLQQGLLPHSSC
The conditions noted are these: n=1, read-out: Percent inhibition, TYRO3.

T2 sequence (P07949 29-1114): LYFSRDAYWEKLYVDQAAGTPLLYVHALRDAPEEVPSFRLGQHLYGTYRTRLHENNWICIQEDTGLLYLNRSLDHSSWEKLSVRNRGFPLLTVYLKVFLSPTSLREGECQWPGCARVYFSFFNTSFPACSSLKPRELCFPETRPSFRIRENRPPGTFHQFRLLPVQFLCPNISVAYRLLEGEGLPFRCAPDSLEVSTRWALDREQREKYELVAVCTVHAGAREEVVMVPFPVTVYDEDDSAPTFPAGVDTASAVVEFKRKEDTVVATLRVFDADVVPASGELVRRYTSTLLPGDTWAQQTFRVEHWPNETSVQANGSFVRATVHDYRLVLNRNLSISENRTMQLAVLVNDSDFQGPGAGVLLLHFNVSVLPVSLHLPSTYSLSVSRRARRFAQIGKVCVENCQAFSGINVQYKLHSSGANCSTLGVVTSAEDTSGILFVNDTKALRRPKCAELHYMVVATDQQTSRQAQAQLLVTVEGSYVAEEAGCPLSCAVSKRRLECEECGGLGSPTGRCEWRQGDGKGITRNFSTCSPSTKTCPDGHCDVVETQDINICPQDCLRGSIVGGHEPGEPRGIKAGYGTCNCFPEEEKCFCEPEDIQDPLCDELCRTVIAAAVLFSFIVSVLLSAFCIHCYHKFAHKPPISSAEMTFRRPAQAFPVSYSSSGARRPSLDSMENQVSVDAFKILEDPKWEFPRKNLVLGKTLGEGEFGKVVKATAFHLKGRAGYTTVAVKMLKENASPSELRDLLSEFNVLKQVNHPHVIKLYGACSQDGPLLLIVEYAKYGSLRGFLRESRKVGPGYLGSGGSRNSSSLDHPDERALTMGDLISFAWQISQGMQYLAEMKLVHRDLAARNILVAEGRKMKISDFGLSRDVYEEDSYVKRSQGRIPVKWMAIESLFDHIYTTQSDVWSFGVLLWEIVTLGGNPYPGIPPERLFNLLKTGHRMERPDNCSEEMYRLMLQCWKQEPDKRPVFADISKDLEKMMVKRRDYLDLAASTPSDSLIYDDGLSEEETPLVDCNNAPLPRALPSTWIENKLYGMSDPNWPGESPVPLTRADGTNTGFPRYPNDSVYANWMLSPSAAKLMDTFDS
T1 sequence (O75914 whole entry): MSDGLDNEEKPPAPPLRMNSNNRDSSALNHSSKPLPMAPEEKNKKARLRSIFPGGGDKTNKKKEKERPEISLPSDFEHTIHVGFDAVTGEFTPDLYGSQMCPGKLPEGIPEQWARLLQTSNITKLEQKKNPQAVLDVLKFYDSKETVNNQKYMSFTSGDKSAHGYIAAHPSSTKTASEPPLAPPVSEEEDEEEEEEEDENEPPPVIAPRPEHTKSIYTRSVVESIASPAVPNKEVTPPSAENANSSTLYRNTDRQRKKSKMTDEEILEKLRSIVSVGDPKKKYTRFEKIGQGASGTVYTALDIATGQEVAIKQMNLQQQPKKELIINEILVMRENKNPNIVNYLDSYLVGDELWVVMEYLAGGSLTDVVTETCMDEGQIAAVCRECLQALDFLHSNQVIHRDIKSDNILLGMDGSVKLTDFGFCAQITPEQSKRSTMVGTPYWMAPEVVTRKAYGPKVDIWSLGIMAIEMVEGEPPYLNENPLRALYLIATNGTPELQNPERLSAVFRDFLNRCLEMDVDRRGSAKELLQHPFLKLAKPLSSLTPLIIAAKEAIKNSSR

Regarding `CN1CCN(c2ccc(Nc3nccc(-c4cnn5ncccc45)n3)cc2C#N)CC1` [Compound 1], the inhibition at 10 µM amounted to 85.3% at PAK3; 89.8% at RET; 100% at STK36; 87.1% on TNK1; 70.2% at TYRO3.
`COc1ccc(Nc2nccc(-c3cnn4ncccc34)n2)cc1` [Compound 2]: the inhibition at 10 µM on PAK3 was 0%; at RET, 0%; on STK36, 98.8%; on TNK1 it was 90.2%; on TYRO3, 0%.
Take `Cc1ccc(O)cc1Nc1ccnc(Nc2cccc(C(N)=O)c2)n1` [Compound 3]: the inhibition at 10 µM at PAK3 is 0%; on RET, 100%; on STK36, 98.4%; at TNK1 it was 80.1%; at TYRO3, 100%.
`Cc1ccc(O)cc1N(C)c1ccnc(Nc2cccc(S(N)(=O)=O)c2)n1` [Compound 4]: the inhibition at 10 µM at PAK3 was 0%; at RET, 100%; at STK36, 99.3%; on TNK1, 87.7%; on TYRO3, 100%.
As to `Fc1cccc(COc2ccc(Nc3ncnc4c3CN(CCN3CCOCC3)CC4)cc2Cl)c1` [Compound 6], the inhibition at 10 µM on PAK3, at RET, on STK36, on TNK1 and on TYRO3 was 0% each time.
As to `COc1cc(Nc2nccc(-c3sc(N)nc3-c3cccc(NC(=O)c4c(F)cccc4F)c3)n2)cc(OC)c1OC` [Compound 7], the inhibition at 10 µM at PAK3 was found to be 94.9%; on RET, 100%; on STK36, 100%; on TNK1 it was 100%; on TYRO3 it was 100%.
As for `C[C@@H](Oc1cc(-c2cnc3ccccn23)sc1C(N)=O)c1ccccc1Cl` [Compound 8], the inhibition at 10 µM at PAK3, on RET, at STK36, at TNK1 and on TYRO3 was 0% in each case.
For `c1ccc(COc2cccc(-c3ccnc4[nH]ccc34)c2)cc1` [Compound 9], the inhibition at 10 µM on PAK3, on RET, at STK36, on TNK1 and at TYRO3 was 0% in each case.
In the case of `Clc1ccc(Nc2ncc(-c3ccccc3)s2)cc1` [Compound 10], the inhibition at 10 µM at PAK3, at RET, at STK36, on TNK1 and on TYRO3 was 0% throughout.
On to `Nc1ncc2c(-c3ccncc3)c[nH]c2n1` [Compound 11], for which the inhibition at 10 µM at PAK3, at RET, at STK36, at TNK1 and on TYRO3 was 0% in each case.
